{
  "source": "patent US20220356170A1",
  "about": "“SREBP INHIBITOR COMPRISING A THIOPHENE CENTRAL RING” (Capulus Therapeutics, LLC, priority 2019, published 2022)",
  "key": {"[1]": {"test": "Half-life in human liver microsomes", "assay_type": "in vitro ADME", "conditions": "NADPH, 37° C., read-out: Human LM: Half life", "protocol": "(§1) Half-life Human Microsomes: Compound 1 was evaluated for stability in human liver microsomes. A 10 mM stock solution of Compound 1 was prepared in DMSO and diluted with water: acetonitrile (1:1) to a concentration of 1 mM. A working concentration of 100 μM was prepared by further dilution with water: acetonitrile (1:1). To make the preincubation mixture, 2.5 μL of the diluted Compound 1 was combined with 75 μL of human liver microsomes at 3.33 mg/mL, and 85 μL of 100 mM potassium phosphate buffer, and this mixture pre-incubated for 10 min at 37° C. To make the 60 minute mixture without cofactor, 32.5 μL of the preincubation mixture was combined with 17.5 μL of 100 mM potassium phosphate buffer and incubated for 60 min at 37° C. To make the 0 min sample with cofactor (NADPH), 16.25 μL of the preincubation mixture was combined with 200 μL of acetonitrile containing internal standard and 8.75 μL of cofactor (NADPH). […] To prepare the sample mixture to be evaluated, 25 μL incubation mixture was combined with 200 μL of acetonitrile containing internal standard and vortexed for 5 min at 1200 rpm, then centrifuged for 10 min at 4000 rpm. […] The sample mixture was evaluated by LC-MS/MS using 10 mM ammonium acetate with 0.1% FA as the aqueous mobile phase, and methanol as the organic mobile phase."}, "[2]": {"test": "In vivo pharmacokinetics, intravenous", "conditions": "male C57 BL/6 mice, dose 2.00 mg/kg (Compound 1), 2.43 mg/kg (Compound 2); for Vd: male, C57 BL/6, mouse, iv", "protocol": "(§2) The in vivo pharmacokinetic properties of Compound 1 by both intravenous and oral administration were evaluated in male C57 BL/6 mice. The in vivo pharmacokinetic properties of Compound 2 by both intravenous and oral administration were evaluated in male C57 BL/6 mice for comparison.\n(§3) Animals were housed in cages with clean bedding. Certified rodent diet was provided. Water was available ad libitum. Environmental controls for the animal room were set to maintain a temperature of 22 to 25° C., humidity of 40-70% RH, and a 12-hour light /12-hour dark cycle. Normal healthy animals certified by the attending veterinarian were selected and acclimatized for minimum three days prior to initiation of study.\n(§4) Procedure for Blood Withdrawal: Mice were anesthetized using gaseous anesthesia. Blood samples were collected through a capillary, guided in retro-orbital plexus. At each time point, blood samples from 3 mice of each respective group were collected. The blood samples were collected in pre-labeled tubes. 0.2 to 0.3 mL of blood were collected from each mouse. After collection of the blood samples at each time point, the samples were stored on ice prior to centrifugation. Blood samples were centrifuged within 15 minutes to separate plasma. Centrifugations was done at 1540 rcf (5000 rpm) at 4° C. for 10 minutes. The plasma was separated and transferred to pre-labeled micro-centrifuge tubes and promptly frozen at −80±10° C. until bioanalysis was performed. Samples were identified by test item, group, animal number, and collection time point.\nTo evaluate pharmacokinetic properties of intravenous delivery, nine male C57 BL/6 mice were administered 2.00 mg Compound 1/kg animal weight through the tail vein. The concentration of Compound 1 in the plasma of the animals was evaluated at 0.083, 0.25, 0.5, 1, 2, 4, 8, and 24 hr by taking blood samples from the mice. Compound 2 was similarly administered for comparison."}, "[3]": {"test": "In vivo pharmacokinetics, oral", "conditions": "male C57 BL/6 mice", "protocol": "as §2, §3, §4\nTo evaluate pharmacokinetic properties of oral delivery, nine male C57 BL/6 mice were administered 10 mg Compound 1/kg animal weight by mouth. The concentration of Compound 1 in the plasma of the animals was evaluated at 0.25, 0.5, 1, 2, 4, 6, 8, and 24 hr by taking blood samples. Compound 2 was similarly administered for comparison."}, "[4]": {"test_system": "SREBP Target Gene in HepG2 cells", "test": "Q-PCR analysis of SREBP target gene expression", "assay_type": "cell-based", "conditions": "500 nM, 48 hour", "protocol": "The effect of Compound 1 on the gene expression of HepG2 cells was evaluated.\nHepG2 cells (P2) were seeded in 24 well plate (80,000 cells/ well) for RNA extraction and in a 96 well plate (10,000 cells/ well) for Cell Titer Glow (CTG). The media used was DMEM and contained 10% FBS. Compound 1 was evaluated at […] for 48 hours. Two biological replicates per experimental group were evaluated for RNA, and 3 biological replicates per experimental group analyzed with CTG.\nFor gene analysis RNA was harvested with RNEasy kit and 20-100 ng used to synthesize cDNA with random primers. Quantitative PCR was performed on 1 pg to 100 ng cDNA for the following genes: ACACA, ACLY, FASN, LSS, PNPLA3. Gene expression levels were determined using […] comparing treated to mock or vehicle treated cells as a baseline."}, "[5]": {"test": "Half-life in mouse liver microsomes", "assay_type": "in vitro ADME", "conditions": "read-out: Mouse LM: Half life", "protocol": "as §1, with “C.” for “C. To make the 0 min sample with cofactor (NADPH), 16.25 μL of the preincubation mixture was combined with 200 μL of acetonitrile containing internal standard and 8.75 μL of cofactor (NADPH).”\nHalf-life Rat and Mouse Microsomes: Compound 1 was evaluated in rat and mouse liver microsomes following a similar procedure as described above for human liver microsomes."}, "[6]": {"conditions": "mouse, plasma, oral, dose 10.00 mg/kg (Compound 1), 12.01 mg/kg (Compound 2)"}, "[7]": {"conditions": "treated compared to mock or vehicle treated cells as baseline"}},
  "note": "Where two headings read alike, the source gives them in different places.",
  "data": [
    {"smiles": "CC(C)(O)c1cc(-c2csc(-c3ccc(C(=O)N4CCC(O)CC4)cc3Cl)c2)ccn1", "note": "[Compound 1, (3-chloro-4-(4-(2-(2-hydroxypropan-2-yl)pyridin-4-yl)thiophen-2-yl)phenyl)(4-hydroxypiperidin-1-yl)methanone]", "values": [
      {"measurement": "half-life at 1 µM", "setting": "[1]", "value": 1.08, "unit": "h"},
      {"measurement": "AUCExtra", "setting": "[2]", "value": 7.27, "unit": "%"},
      {"measurement": "Vd", "setting": "[2]; plasma, read-out: Vd", "value": 0.73, "unit": "L/kg"},
      {"measurement": "Vd", "setting": "[2]; plasma, read-out: Vss", "value": 0.7, "unit": "L/kg"},
      {"measurement": "AUC(0-inf)", "setting": "[2]; mouse, plasma", "value": 25700, "unit": "ng·h/mL"},
      {"measurement": "AUC(0-t)", "setting": "[2]; mouse, plasma", "value": 23800, "unit": "ng·h/mL"},
      {"measurement": "C0", "setting": "[2]; mouse, plasma", "value": 4630, "unit": "ng/mL"},
      {"measurement": "clearance", "setting": "[2]; mouse, plasma", "value": 1.3, "unit": "mL/min/kg"},
      {"measurement": "half-life", "setting": "[2]; mouse, plasma", "value": 6.5, "unit": "h"},
      {"measurement": "MRT last", "setting": "[2]; mouse, plasma, read-out: MRT0-last", "value": 7.07, "unit": "h"},
      {"measurement": "bioavailability", "setting": "[3]; mouse, plasma, oral vs intravenous", "value": 59.7, "unit": "%"},
      {"measurement": "AUC(0-inf)", "setting": "[3]; [6]", "value": 76300, "unit": "ng·h/mL"},
      {"measurement": "AUC(0-t)", "setting": "[3]; [6]", "value": 71200, "unit": "ng·h/mL"},
      {"measurement": "Cmax", "setting": "[3]; [6]", "value": 7840, "unit": "ng/mL"},
      {"measurement": "Tmax", "setting": "[3]; [6]", "value": 0.5, "unit": "h"},
      {"measurement": "half-life", "setting": "[3]; [6]", "value": 6.18, "unit": "h"},
      {"measurement": "MRT last", "setting": "[3]; mouse, plasma, oral, dose 10.00 mg/kg (Compound 1), 12.01 mg/kg (Compound 2), read-out: MRT0-last", "value": 7.6, "unit": "h"},
      {"measurement": "AUCExtra", "setting": "[3]; oral, dose 10.00 mg/kg (Compound 1), 12.01 mg/kg (Compound 2)", "value": 6.77, "unit": "%"},
      {"measurement": "Total Gene Average", "setting": "[4]; average of ACACA, ACLY, FASN, LSS, PNPLA3", "value": 0.467},
      {"measurement": "ACACA gene expression (Q-PCR)", "setting": "[4]; [7]", "value": 0.648},
      {"measurement": "ACLY gene expression (Q-PCR)", "setting": "[4]; [7]", "value": 0.663},
      {"measurement": "FASN gene expression (Q-PCR)", "setting": "[4]; [7]", "value": 0.542},
      {"measurement": "LSS gene expression (Q-PCR)", "setting": "[4]; [7]", "value": 0.295},
      {"measurement": "PNPLA3 gene expression (Q-PCR)", "setting": "[4]; [7]", "value": 0.187},
      {"measurement": "half-life at 1 µM", "setting": "[5]", "value": 2, "unit": "h"}
    ]}
  ]
}
